Measured values published in PMC5654082 (Malaria Journal, 2017).
Counter-ions that a name gives are not always drawn.

Tests used:
MATE1 = biological target: T1, MATE1 (Homo sapiens, UniProt Q96FL8); test: MATE1-mediated uptake in transduced HEK293 cells; format: cell-based; set-up: host or cells: HEK293, baculovirus transduction (CMV promoter), transient; conditions: 100 µM, 5 min
T1 sequence (Q96FL8 1-570): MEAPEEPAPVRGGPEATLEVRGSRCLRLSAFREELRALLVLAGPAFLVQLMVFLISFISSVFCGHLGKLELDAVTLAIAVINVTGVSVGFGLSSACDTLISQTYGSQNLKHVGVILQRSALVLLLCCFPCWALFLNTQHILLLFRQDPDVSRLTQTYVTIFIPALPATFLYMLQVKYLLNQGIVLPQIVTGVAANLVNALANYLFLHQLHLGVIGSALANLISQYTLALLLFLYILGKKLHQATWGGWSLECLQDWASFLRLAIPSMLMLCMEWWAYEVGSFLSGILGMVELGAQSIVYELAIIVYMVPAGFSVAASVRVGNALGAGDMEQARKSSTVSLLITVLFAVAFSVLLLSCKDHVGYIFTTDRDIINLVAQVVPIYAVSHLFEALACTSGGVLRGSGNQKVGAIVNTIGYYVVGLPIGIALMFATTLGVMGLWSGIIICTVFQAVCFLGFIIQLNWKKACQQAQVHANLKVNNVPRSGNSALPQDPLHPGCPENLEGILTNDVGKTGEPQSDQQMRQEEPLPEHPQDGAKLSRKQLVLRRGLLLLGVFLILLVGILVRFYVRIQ
Procedure: (§1) HEK293 cells were modified to transiently express (a combination of) human OCT1, OCT2, MATE1, MATE2-K, or eYFP. Briefly, cDNA of the respective genes was cloned downstream of a CMV promoter into a baculovirus, of which passage three was used to transduce HEK293 cells. These cells were seeded in poly-D-lysine coated 24- or 96-wells plates and grown in a 37 °C incubator at 5% CO2. Growth was initiated at ~ 25% confluency using 375 or 125 μL cell and complete medium (DMEM + GlutaMAX™-I supplemented with 10% fetal bovine serum) suspension per well, respectively. […]
(§2) Import and export of PG and cycloguanil (CG) was assessed by single and double transduced HEK293 cells. […] Following the same procedure as for the cellular import assay described above, the import of 100 µM PG and CG was measured after 5 min incubation and data was plotted as mean pmol/mg/min ± SEM. […] Significant reduction in uptake (i.e. export by MATEs) was determined using ln transformation and a one-way repeated measures ANOVA with Dunnet’s post test.
(§3) Anti-malarial concentration in the cell lysates was quantified using an LC–MS/MS system consisting of a UPLC, a binary solvent manager, a vacuum degasser and an autosampler, coupled to a Xevo TQ-S micro triple quadrupole mass spectrometer. […] The peak area of the most abundant product ion was used for quantification.

MATE2-K = MATE2-K (Homo sapiens, UniProt Q86VL8); test: MATE2-K-mediated uptake in transduced HEK293 cells; format: cell-based; set-up: host or cells: HEK293, baculovirus transduction (CMV promoter), transient; conditions: 100 µM, 5 min
MATE2-K, sequence (Q86VL8 1-566 isoform Q86VL8-3): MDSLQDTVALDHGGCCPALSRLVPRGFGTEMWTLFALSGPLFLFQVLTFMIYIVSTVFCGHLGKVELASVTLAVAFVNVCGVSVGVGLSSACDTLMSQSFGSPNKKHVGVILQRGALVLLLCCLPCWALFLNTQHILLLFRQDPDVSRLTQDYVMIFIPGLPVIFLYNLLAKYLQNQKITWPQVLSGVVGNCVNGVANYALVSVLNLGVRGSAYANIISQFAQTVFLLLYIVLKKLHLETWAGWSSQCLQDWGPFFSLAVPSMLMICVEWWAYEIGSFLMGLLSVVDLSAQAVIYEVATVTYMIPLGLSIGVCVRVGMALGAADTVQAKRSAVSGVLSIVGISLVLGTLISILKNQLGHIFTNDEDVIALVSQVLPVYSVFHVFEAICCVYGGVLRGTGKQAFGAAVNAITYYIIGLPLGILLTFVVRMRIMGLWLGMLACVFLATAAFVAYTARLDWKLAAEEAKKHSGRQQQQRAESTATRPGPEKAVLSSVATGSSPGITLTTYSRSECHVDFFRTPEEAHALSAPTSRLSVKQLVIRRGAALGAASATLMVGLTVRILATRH
Procedure: as §1, §2, §3

SMILES: [H]/N=C(\N/C(=N/[H])Nc1ccc(Cl)cc1)NC(C)C [Proguanil, proguanil hydrochloride]
- Uptake by MATE1 (MATE1): 430 ± 110 pmol/mg/min
- Uptake by MATE2-K (MATE2-K): 360 ± 90 pmol/mg/min

SMILES: CC1(C)N=C(N)N=C(N)N1c1ccc(Cl)cc1 [Cycloguanil]
- Uptake by MATE1 (MATE1): 40 ± 9 pmol/mg/min
- Uptake by MATE2-K (MATE2-K): 56 ± 15 pmol/mg/min
